# Source: ChEMBL document CHEMBL1157897, “A rapid oxime linker-based library approach to identification of bivalent inhibitors of the Yersinia pestis protein-tyrosine phosphatase, YopH” (Bioorg Med Chem Lett, 2010)
# Biological target: Secreted effector protein (Yersinia pestis, UniProt O68720)
# Experiment: Inhibition of Yersinia pestis YopH after 15 mins by pNPP hydrolysis assay
# Sequence of Secreted effector protein (O68720 whole entry): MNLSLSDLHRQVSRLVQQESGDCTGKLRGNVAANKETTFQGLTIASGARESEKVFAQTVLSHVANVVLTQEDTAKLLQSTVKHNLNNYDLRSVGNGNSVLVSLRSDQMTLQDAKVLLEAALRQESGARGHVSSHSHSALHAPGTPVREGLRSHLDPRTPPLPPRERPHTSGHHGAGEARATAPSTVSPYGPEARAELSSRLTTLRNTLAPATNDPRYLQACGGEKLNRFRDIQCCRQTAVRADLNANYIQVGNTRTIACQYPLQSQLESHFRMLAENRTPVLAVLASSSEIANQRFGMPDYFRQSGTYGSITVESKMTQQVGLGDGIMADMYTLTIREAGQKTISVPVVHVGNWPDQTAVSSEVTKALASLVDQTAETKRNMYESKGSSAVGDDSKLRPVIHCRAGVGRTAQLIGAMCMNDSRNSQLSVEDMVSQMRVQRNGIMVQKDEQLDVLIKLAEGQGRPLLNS
smiles,measurement,value
O=C(O)c1cc(/C=N/OCCCCCCCCCCO/N=C/c2ccc(OCc3ccccc3)cc2)ccc1O,IC50,2400 nM
